This note sets out measurements from ChEMBL document CHEMBL5291721, “A preclinical secondary pharmacology resource illuminates target-adverse drug reaction associations of marketed drugs” (Nat Commun, 2023).

As usually defined, the AC50 is the concentration giving half of the maximal activity seen.

Test [1] concerns the target T1, Muscarinic acetylcholine receptor M1 (Homo sapiens, UniProt P11229).
T1 sequence (P11229 whole entry): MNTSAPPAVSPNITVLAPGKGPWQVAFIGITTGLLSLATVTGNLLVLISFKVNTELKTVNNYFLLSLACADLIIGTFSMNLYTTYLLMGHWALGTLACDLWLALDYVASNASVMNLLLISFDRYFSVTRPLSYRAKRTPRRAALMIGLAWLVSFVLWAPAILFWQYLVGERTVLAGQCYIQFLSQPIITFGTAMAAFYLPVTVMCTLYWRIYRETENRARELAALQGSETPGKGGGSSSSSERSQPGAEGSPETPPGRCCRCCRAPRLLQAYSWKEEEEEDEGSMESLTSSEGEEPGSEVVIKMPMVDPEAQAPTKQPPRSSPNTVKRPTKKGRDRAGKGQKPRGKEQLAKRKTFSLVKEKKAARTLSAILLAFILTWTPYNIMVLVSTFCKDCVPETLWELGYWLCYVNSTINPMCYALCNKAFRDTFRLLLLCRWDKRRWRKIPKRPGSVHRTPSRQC
It is filed as functional.

Test [2] addresses Vasopressin V1a receptor (Homo sapiens, UniProt P37288).
The target in test [3] is Histamine H3 receptor (Homo sapiens, UniProt Q9Y5N1).
For test [4], the target named is T2, Adenosine receptor A1 (Homo sapiens, UniProt P30542).
T2 sequence (P30542 whole entry): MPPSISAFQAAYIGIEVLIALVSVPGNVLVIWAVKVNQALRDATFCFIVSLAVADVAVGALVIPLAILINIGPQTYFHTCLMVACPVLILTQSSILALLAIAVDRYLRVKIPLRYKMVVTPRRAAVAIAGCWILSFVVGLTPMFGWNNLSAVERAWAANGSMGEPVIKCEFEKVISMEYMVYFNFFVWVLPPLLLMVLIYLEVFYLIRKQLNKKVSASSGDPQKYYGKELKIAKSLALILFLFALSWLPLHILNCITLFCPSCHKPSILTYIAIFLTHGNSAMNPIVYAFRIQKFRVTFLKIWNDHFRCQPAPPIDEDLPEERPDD

Test [5] addresses Cannabinoid receptor 1 (Homo sapiens, UniProt P21554). It is filed as functional, cell-based.
The target of test [6] is T3, 5-hydroxytryptamine receptor 2C (Homo sapiens, UniProt P28335).
T3 sequence (P28335 whole entry): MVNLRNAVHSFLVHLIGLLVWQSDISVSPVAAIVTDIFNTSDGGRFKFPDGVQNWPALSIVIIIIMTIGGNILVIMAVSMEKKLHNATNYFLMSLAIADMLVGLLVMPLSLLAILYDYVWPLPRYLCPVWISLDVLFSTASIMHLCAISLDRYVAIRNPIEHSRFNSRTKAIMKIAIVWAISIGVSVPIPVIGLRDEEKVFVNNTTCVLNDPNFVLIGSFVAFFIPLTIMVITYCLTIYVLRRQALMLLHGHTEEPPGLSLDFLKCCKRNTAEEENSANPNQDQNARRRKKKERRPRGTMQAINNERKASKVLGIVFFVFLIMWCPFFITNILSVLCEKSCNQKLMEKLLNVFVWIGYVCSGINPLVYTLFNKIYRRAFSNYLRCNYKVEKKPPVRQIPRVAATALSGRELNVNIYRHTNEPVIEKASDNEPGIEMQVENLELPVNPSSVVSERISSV

Test [7] addresses T4, 5-hydroxytryptamine receptor 3A (Homo sapiens, UniProt P46098).
T4 sequence (P46098 whole entry): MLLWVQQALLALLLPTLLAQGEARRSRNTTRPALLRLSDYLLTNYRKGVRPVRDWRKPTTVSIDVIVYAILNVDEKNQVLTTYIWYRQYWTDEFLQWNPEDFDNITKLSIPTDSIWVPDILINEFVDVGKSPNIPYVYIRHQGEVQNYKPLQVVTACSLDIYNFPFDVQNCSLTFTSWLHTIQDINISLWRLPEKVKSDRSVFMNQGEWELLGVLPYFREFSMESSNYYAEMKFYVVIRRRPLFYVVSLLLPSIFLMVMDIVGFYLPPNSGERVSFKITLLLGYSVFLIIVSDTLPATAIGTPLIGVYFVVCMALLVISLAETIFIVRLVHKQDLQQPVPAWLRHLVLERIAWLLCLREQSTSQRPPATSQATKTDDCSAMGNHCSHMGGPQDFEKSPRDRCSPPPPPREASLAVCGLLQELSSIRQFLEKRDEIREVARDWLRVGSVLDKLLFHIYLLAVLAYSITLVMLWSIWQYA
The class given is functional.

The target in test [8] is T5, Type-1 angiotensin II receptor (Homo sapiens, UniProt P30556).
T5 sequence (P30556 whole entry): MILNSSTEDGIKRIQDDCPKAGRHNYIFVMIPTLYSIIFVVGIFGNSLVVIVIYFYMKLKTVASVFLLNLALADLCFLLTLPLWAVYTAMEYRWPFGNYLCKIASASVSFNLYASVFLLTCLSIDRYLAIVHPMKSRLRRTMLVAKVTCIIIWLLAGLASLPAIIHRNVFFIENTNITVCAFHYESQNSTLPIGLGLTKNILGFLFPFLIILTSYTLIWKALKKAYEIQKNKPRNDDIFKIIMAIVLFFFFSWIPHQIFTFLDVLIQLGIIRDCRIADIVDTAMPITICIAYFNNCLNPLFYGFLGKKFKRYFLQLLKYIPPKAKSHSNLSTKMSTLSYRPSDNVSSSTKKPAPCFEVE

The target in test [9] is 5-hydroxytryptamine receptor 2A (Homo sapiens, UniProt P28223). It is filed as functional, cell-based.
Test [10] has as its target Vasopressin V2 receptor (Homo sapiens, UniProt P30518).
Test [11] concerns the target T6, Gastrin/cholecystokinin type B receptor (Homo sapiens, UniProt P32239).
T6 sequence (P32239 whole entry): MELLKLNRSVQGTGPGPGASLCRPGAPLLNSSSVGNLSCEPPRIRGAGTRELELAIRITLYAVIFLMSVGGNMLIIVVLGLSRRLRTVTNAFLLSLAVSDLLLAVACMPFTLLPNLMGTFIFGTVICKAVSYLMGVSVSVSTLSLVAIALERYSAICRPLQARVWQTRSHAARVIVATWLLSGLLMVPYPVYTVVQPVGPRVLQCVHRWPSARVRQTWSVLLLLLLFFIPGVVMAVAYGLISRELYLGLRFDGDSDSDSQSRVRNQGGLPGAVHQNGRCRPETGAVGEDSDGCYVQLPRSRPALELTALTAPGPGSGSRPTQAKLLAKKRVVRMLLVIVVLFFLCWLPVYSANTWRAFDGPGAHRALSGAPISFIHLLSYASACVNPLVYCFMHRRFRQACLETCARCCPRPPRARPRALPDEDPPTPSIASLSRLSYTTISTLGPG
Further: assay procedure not described here.

Chain of 5-hydroxytryptamine receptor 2A (P28223 whole entry): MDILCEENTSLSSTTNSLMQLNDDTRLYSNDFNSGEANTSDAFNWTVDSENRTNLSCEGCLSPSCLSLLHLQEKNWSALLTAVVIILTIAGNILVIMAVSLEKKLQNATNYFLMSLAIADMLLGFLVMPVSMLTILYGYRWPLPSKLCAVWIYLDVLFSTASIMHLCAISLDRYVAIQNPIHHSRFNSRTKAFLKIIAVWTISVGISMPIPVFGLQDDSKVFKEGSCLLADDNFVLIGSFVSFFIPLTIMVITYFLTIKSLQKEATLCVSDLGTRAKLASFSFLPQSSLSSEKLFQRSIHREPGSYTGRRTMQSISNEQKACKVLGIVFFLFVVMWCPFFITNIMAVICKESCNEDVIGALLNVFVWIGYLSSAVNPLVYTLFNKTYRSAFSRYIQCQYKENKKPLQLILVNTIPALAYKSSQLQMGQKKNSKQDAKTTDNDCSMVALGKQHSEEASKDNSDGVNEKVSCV
Chain of Vasopressin V1a receptor (P37288 whole entry): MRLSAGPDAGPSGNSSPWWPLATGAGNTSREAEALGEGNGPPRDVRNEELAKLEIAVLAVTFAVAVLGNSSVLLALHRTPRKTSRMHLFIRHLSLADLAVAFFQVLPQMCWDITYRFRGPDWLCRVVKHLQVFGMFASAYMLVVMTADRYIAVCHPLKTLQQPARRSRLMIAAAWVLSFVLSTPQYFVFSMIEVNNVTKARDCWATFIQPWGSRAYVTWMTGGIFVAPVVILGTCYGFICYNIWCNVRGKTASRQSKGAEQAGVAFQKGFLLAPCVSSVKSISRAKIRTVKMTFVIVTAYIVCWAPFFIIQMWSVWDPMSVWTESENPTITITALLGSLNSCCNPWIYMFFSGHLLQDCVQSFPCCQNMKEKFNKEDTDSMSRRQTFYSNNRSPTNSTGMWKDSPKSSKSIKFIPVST
Chain of Cannabinoid receptor 1 (P21554 whole entry): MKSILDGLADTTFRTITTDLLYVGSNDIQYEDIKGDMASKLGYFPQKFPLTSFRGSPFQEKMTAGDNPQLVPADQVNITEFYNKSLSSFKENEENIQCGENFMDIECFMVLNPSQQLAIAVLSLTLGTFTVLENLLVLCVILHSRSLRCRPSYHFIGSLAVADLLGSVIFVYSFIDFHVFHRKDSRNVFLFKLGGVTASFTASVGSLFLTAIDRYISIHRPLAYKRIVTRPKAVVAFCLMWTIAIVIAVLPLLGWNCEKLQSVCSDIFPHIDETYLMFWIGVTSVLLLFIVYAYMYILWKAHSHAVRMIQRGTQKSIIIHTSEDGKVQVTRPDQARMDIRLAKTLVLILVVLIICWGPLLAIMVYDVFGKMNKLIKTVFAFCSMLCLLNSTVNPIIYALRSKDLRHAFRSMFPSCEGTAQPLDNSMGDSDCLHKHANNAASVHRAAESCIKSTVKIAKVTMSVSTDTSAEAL
Chain of Vasopressin V2 receptor (P30518 whole entry): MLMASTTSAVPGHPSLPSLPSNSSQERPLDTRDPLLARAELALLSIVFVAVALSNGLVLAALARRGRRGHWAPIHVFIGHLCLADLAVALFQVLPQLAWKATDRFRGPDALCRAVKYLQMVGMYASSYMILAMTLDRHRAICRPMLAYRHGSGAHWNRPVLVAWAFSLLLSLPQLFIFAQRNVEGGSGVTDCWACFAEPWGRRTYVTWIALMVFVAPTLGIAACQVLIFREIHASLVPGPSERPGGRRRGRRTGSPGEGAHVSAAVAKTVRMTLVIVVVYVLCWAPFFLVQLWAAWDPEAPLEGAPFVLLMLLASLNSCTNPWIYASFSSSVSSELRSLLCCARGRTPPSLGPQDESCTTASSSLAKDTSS
Chain of Histamine H3 receptor (Q9Y5N1 whole entry): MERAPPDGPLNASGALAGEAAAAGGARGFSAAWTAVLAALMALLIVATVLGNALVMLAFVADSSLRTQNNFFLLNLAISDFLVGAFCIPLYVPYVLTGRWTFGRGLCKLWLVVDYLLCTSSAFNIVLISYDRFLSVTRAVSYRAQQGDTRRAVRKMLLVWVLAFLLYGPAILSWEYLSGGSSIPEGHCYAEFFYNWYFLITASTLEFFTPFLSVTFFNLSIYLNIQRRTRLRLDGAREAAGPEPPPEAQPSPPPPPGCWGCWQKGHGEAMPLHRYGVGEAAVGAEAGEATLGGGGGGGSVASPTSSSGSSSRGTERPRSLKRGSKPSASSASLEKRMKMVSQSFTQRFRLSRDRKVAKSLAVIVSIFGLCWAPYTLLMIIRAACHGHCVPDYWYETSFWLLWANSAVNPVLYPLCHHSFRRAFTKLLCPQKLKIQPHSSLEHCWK

Regarding `CC(=O)OCC(=O)[C@@]1(O)CC[C@H]2[C@@H]3CCC4=CC(=O)CC[C@]4(C)C3=CC[C@@]21C` [ANECORTAVE ACETATE], the AC50 in [1] is > 10 µM; in test [2] it was > 10 µM; in [3] it was > 10 µM; in test [4], > 10 µM; in test [5], > 30 µM; in test [6], > 30 µM. Besides, the AC50 in test [7] was > 30 µM; in test [8], > 10 µM; in test [9], > 10 µM; in [10], > 10 µM.

As to `NS(=O)(=O)c1cc2c(cc1C(F)(F)F)NC(Cc1ccccc1)NS2(=O)=O` (stereo unspecified) [BENDROFLUMETHIAZIDE], the AC50 in test [1] is > 10 µM; in test [2] it was > 10 µM; in [3] it was > 10 µM; in test [4], > 10 µM; in test [6], > 30 µM; in [7] it was > 30 µM. Moreover, the AC50 in test [8], in test [9] and in test [10] was > 10 µM each time.

For the molecule `C=CC1=C(C(=O)O)N2C(=O)[C@@H](NC(=O)/C(=N\OCC(=O)O)c3csc(N)n3)[C@H]2SC1` [CEFIXIME], the AC50 in [1], in test [2], in test [3], in test [4], in [5] and in test [8] was > 30 µM throughout. The AC50 in test [9], in [10] and in [11] was > 30 µM throughout.

For `COC(=O)N[C@@H](C)CNc1nccc(-c2cn(C(C)C)nc2-c2cc(Cl)cc(NS(C)(=O)=O)c2F)n1` [ENCORAFENIB], the AC50 in test [1], in test [2], in test [3], in test [4], in [6] and in [7] was > 30 µM each time. In addition, the AC50 in test [8] is > 30 µM; in [9] it was > 30 µM; in test [10], > 30 µM; in test [11], 22.1 µM.

`Nc1nc(F)nc2c1ncn2[C@@H]1O[C@H](COP(=O)(O)O)[C@@H](O)[C@@H]1O` [FLUDARABINE PHOSPHATE]: the AC50 in test [1], in test [2], in [3], in test [4], in test [6] and in test [7] was > 30 µM each time. The AC50 in [8], in test [9], in test [10] and in [11] was > 30 µM in each case.

`CC(=O)Nc1c(I)c(C(=O)N[C@H]2C(O)O[C@H](CO)[C@@H](O)[C@@H]2O)c(I)c(N(C)C(C)=O)c1I` (stereo partly specified) [METRIZAMIDE]: the concentration at half-maximal activity (AC50) in test [1] was > 10 µM; in test [2], > 10 µM; in test [4], > 10 µM; in test [5], > 30 µM; in [6], > 30 µM; in test [7], > 30 µM. In addition, the AC50 in test [8], in [9] and in [10] was > 10 µM throughout.

Turning to `CC1(C)C(C=C(Cl)Cl)C1C(=O)OCc1cccc(Oc2ccccc2)c1` (stereo unspecified) [PERMETHRIN], the AC50 is > 10 µM in test [1]; > 10 µM in [2]; > 10 µM in test [3]; > 10 µM in test [4]; > 30 µM in [6]; > 30 µM in test [7]. In addition, the concentration at half-maximal activity (AC50) in test [8], in test [9] and in [10] was > 10 µM each time.

As for `NC(=O)CCC/N=C(\c1ccc(Cl)cc1)c1cc(F)ccc1O` [PROGABIDE], the AC50 was > 10 µM in [1]; > 10 µM in test [2]; > 10 µM in test [3]; > 10 µM in test [4]; > 30 µM in test [5]; > 30 µM in [6]. The AC50 in test [7] was > 30 µM; in [8], > 10 µM; in test [9] it was > 10 µM; in test [10], > 10 µM.

For the molecule `CC(NCCc1ccc(O)cc1)C(O)c1ccc(O)cc1` (stereo unspecified) [RITODRINE], the AC50 in test [1], in [2], in test [3], in [4], in test [6] and in test [7] was > 30 µM in each case. The AC50 in test [8], in test [9], in test [10] and in test [11] was > 30 µM throughout.

Regarding `C=CC(N)CCC(=O)O` (stereo unspecified) [VIGABATRIN], the half-maximal activity concentration (AC50) in [1] is > 10 µM; in test [2] it was > 10 µM; in [3], > 10 µM; in test [4] it was > 10 µM; in test [5] it was > 30 µM; in test [6], > 30 µM. Further, the AC50 in test [7] is > 30 µM; in test [8] it was > 10 µM; in test [9], > 10 µM; in [10], > 10 µM.

For the molecule `N#C[C@@H]1CCCN1C(=O)CNC12CC3CC(CC(O)(C3)C1)C2` [VILDAGLIPTIN], the half-maximal activity concentration (AC50) was > 30 µM in test [1]; > 30 µM in test [2]; > 10 µM in test [3]; > 30 µM in test [4]; > 30 µM in [6]; > 30 µM in [7]. Also, the AC50 in [8], in test [9], in [10] and in test [11] was > 30 µM throughout.

For the molecule COLISTIN, the AC50 in [1], in test [5], in test [6], in [7] and in test [9] was > 30 µM each time.
